Results taken from ChEMBL document CHEMBL1157539, “Thousands of chemical starting points for antimalarial lead identification” (Nature, 2010).

Each compound was assayed on Plasmodium falciparum (assay: GSK_TCMDC: Inhibition of Plasmodium falciparum 3D7 in whole erythrocytes, using parasite LDH activity as an index of growth.). Settings: Plasmodium falciparum, 3D7.
Type: functional, organism-based

Structure (SMILES) | XC50 [nM]
CN(C)c1ccc(/C=C2\S/C(=N\c3ccccc3)N(c3ccccc3)C2=O)cc1[N+](=O)[O-] | 778
Cc1ccc2nc(C)cc(N/N=C/c3ccc([N+](=O)[O-])cc3)c2c1 | 793
Cc1[nH]c(C)c(-c2ccc(Oc3cccc(Cl)c3)cc2)c(=O)c1Cl | 20.8
N=C(N)c1ccc(C=Cc2ccc(C(=N)N)cc2O)cc1 | 103
CCCCCCCN1CCC(NC(=O)Nc2ccnc3ccc(OC)cc23)C(CO)C1 (stereo not drawn) | 176
O=C(CCc1c[nH]cn1)Nc1cccc(-c2ccc(-c3nc4cc(F)ccc4[nH]3)s2)c1 | 557
COc1ccc(NC(=O)[C@H](CC(C)C)Nc2cc(C)nc(NCc3cccc(C)c3)n2)cc1 | 1020
COc1ccc2[nH]ccc(=NN=Cc3cccc(Cl)c3)c2c1 | 193
c1ccc(CNCc2cccc(-c3cccc(-c4nc5ccccc5[nH]4)c3)c2)cc1 | 569
CCCCCCc1cc2cc(-c3nc(-c4ccc(OC)cc4)cs3)c(=O)oc2cc1O | 816
CCC(CC)NCc1c(O)ccc2c(CNC(CC)CC)c(O)ccc12 | 390
Cc1ccc(Cc2cccc3nc(N)nc(N)c23)cc1 | 1150
COc1ccc(C(=O)C2CC2CN(C)CC(O)c2cc(C)c(OC)cc2C)cc1 (stereo not drawn) | 968
O=C(NC(=S)NCc1ccncc1)c1ccccc1 | 1690
CCOc1ccc(-c2nonc2NC(=O)c2ccc(Cl)cc2)cc1OCC | 988
COc1ccc(-c2cc3ncnc(N4CCN(CCN5CCCC5)CC4)c3s2)cc1 | 831
O=C(C1CCN(C(c2ccccc2)c2ccc(Cl)c(Cl)c2)CC1)N1CC=CC1 (stereo not drawn) | 725
CC[C@H](C)CNC(=O)c1cncc(-c2cccc(CNC3Cc4ccccc4C3)c2)c1 | 591
Cc1noc(C)c1-c1cccc(CNCc2ccc(-c3cccc(-c4nc5cc(F)ccc5[nH]4)c3)cc2)c1 | 545
CC(C)(C)c1cc(C(=O)N2CCN(c3nccnc3C#N)CC2)n(Cc2ccccc2)n1 | 758
COCCN1CCN(Cc2ccc(-c3ccc(-c4nc5cccc(C)c5[nH]4)s3)cc2)CC1 | 859
Cc1ccc(NC(=O)c2ccc3ncccc3c2)cc1OC1CCN(Cc2ccsc2)CC1 | 930
C#CCOc1ccc2ccccc2c1CNCCCCCCNCc1c(OCC#C)ccc2ccccc12 | 780
Cn1cc(CCNc2ccnc(N3CCC(c4ncc[nH]4)CC3)n2)c2ccccc21 | 1200
CCCCCCN1CCCN(Cc2ccc(C(=O)Nc3ccc(C(C)C)cc3)cc2)CC1 | 834

Structure (SMILES) | XC50 [nM]
CCCCCCNC(=O)C1Cc2c([nH]c3cc(Cl)ccc23)C2(CCN(CCC)CC2)N1 (stereo not drawn) | 880
CCCCc1ccc2ncc(C(=O)OCC)c(O)c2c1 | 632
Cc1cc(NCCC(=O)Nc2ccccc2)nc(NCCc2cccs2)n1 | 893
N#Cc1ccc(N(CCOc2ccc(Cl)c(Cl)c2)Cc2ccccc2C(F)(F)F)cc1C(F)(F)F | 1110
CCOC(=O)N1CCN(CCCCNc2c3ccc(Cl)cc3nc3ccc(OC)cc23)CC1 | 121
COc1ccc(Cc2cnc3nc(N)nc(N)c3c2C)cc1OC | 9.41
Cn1cccc1CCNCc1ccc(-c2cccc(-c3nc4ccccc4[nH]3)c2)cc1 | 1210
CC(C)(C)c1ccc(NC(=O)c2ccc(CN3CCCN(Cc4cccc(C#N)c4)CC3)cc2)cc1 | 641
CCOc1ccc2ccccc2c1C(=O)Nc1cc(C)nn1-c1nc(C)cc(=O)[nH]1 | 1010
CC(C)c1ccc(CN2CCCCC(NC(=O)c3cc(-c4ccccc4Cl)cs3)C2)cc1 (stereo not drawn) | 1120
Nc1c2c(nc3ccc(NC(=O)CCCCCCc4ccccc4)cc13)CCCC2 | 248
CC(C)CCNC(=O)C1Cc2c([nH]c3ccc(Br)cc23)C2(CCN(CCc3ccccc3)CC2)N1 (stereo not drawn) | 688
Cc1ccc(CC(C)NC[C@H](O)c2cccc(Cl)c2)cc1 (stereo partly drawn) | 860
OC(CNc1ccnc(Nc2ccccc2)n1)c1ccc(C(F)(F)F)cc1 (stereo not drawn) | 606
COc1cc(Cc2cnc(N)nc2N)c2c(c1OC)OC(C)(C)C=C2 | 1190
COc1cc(Nc2nc(N)n(C(=O)c3ccc4c(c3)OCO4)n2)cc(OC)c1OC | 1130
CCC(NCc1ccc(-c2cncc(C(=O)NCC(C)C)c2)cc1)c1ccccc1 (stereo not drawn) | 944
CN(C)CCCn1cc(C(=O)OC2CC3CCC(C2)N3C)c2cc(-c3ccccc3)ccc21 (stereo not drawn) | 837
O=C(/C=C/c1ccccc1Cl)Nc1ccc(Br)c(OCCN2CCN(CCN3CCCC3)CC2)c1 | 653
N#Cc1ccc(CN2CCC(Oc3ccc(NC(=O)c4cccs4)cc3Cl)CC2)cc1 | 577
COc1ccc(CCn2c(=N)c(C(=O)NCc3cccnc3)cc3c(=O)n4cccc(C)c4nc32)cc1 | 1400
N=C(NCCc1ccc(Cl)cc1)c1ccc(Cl)c(Cl)c1 | 1100
CCN(CC)CCN1C(=O)c2oc3ccc(F)cc3c(=O)c2C1c1cccc(Cl)c1 (stereo not drawn) | 531
CCOC(=O)c1ccc(NC(=O)N[C@@H](Cc2ccccc2)C(=O)NC2CCN(Cc3ccc(OCCCN(C)C)cc3)C2)cc1 (stereo partly drawn) | 702
CCNc1cc(C)nc(Nc2ccc(NC(=O)c3ccc(OC)c(OC)c3)cc2)n1 | 1070

Structure (SMILES) | XC50 [nM]
CN(CCc1ccccc1)c1ncc(-c2cccc(CNCCC3CCCN3C)c2)cn1 (stereo not drawn) | 870
Cc1cccc2nc(-c3cccc(-c4cccc(NC(=O)CNC(=O)c5ccc(O)cc5)c4)c3)[nH]c12 | 990
c1cn(CCCNc2ncc(-c3ccsc3)c(-c3nccs3)n2)cn1 | 646
Cc1ccc2c(NC(=O)Nc3ccc(N(C)C)cc3)cc(C)nc2c1 | 820
O=C(Nc1cccc([N+](=O)[O-])c1)Nc1cccc(C(F)(F)F)c1 | 767
O=C(Nc1cccc(CN2CCCN(Cc3ccc4c(c3)OCO4)CC2)c1)c1cc2ccccc2s1 | 990
O=C(Nc1ccc(-c2oc(C(=O)NCCc3cccc(Cl)c3)cc2-c2ccncc2)cc1)Nc1cccc(Cl)c1 | 722
COc1ccccc1CCNc1nc(C)cc(NCCC(=O)NCCOc2ccccc2)n1 | 1370
Cc1cc(N(C)CCN(C)C)nc(Nc2ccc(Br)cc2)n1 | 801
COCC(C)n1c(C)cc(C(=O)CSc2nnc(Nc3ccccc3)s2)c1C (stereo not drawn) | 736
O=C(C=Cc1ccc(Cl)c(Cl)c1)NCCCCCN1CCC(CCNC(=O)c2ccc3c(c2)OCO3)CC1 | 693
COc1cc2nc(NCCn3nc(C)cc3C)nc(NCCc3ccccc3)c2cc1OC | 436
O=C(Nc1ccc(-c2cccc(-c3nc4cc(C(F)(F)F)ccc4[nH]3)c2)cc1)c1ccoc1 | 829
COc1ccc(Nc2nc(=Nc3ccccc3)nc(NN=Cc3cc(Cl)ccc3O)[nH]2)cc1 | 647
CC(C)c1ccc(NC(=O)NCC2CCCN(CCCCCNC(=O)/C=C/c3ccc(Cl)c(Cl)c3)C2)cc1 (stereo not drawn) | 806
COCCOC(=O)C(=O)c1c(-c2ccccc2)c(-c2ccc(OC)c(OC)c2)c2c3cc(OC)c(OC)cc3ccn12 | 497
CN1CCc2cc(NC(=O)c3cc4ccccc4s3)cc(-c3ccccc3)c2CC1 | 885
COc1ccc(CCN2CC[C@H](Nc3nc(-c4ccc(F)c(F)c4)nc4ccccc34)C2)cc1S(N)(=O)=O | 789
Cc1cccc2nc(-c3ccc(-c4ccc(NC(=O)Nc5ccc(Cl)c(Cl)c5)cc4)s3)[nH]c12 | 176
Cc1cc(NC2CCCC2)nc(Nc2ccccc2F)n1 | 926
COc1ccc2nc(-c3ccc(F)cc3)cc([C@@H](O)[C@@H]3C[C@@H]4CCN3CC4C=NO)c2c1 (stereo partly drawn) | 248
O=C(NCCc1ccccc1)N(Cc1ccccc1-c1cccc(CNCCc2ccccc2)c1)C1CCN(Cc2ccccc2)CC1 | 625
Clc1ccc2c(N3CCCNCC3)ccnc2c1 | 482
